In paper PMC3115714 (Bioorganic & medicinal chemistry, 2011):

Legend:
[1] = target: μ-opioid receptor (CHO hMOR) (Homo sapiens, UniProt P35372); format: binding
[2] = target: δ-opioid receptor (CHO hDOR) (Homo sapiens, UniProt P41143); experiment: Opioid receptor binding assay, [3H]DADLE displacement in hDOR-CHO cell membranes; settings: selectivity μ over δ, from Ki
[3] = target: κ-opioid receptor (CHO hKOR) (Homo sapiens, UniProt P41145); format: binding
[4] = target: μ-opioid receptor (hMOR-CHO) (Homo sapiens, UniProt P35372); experiment: biochemical; format: biochemical
Sequence of μ-opioid receptor (hMOR-CHO) (P35372 whole entry): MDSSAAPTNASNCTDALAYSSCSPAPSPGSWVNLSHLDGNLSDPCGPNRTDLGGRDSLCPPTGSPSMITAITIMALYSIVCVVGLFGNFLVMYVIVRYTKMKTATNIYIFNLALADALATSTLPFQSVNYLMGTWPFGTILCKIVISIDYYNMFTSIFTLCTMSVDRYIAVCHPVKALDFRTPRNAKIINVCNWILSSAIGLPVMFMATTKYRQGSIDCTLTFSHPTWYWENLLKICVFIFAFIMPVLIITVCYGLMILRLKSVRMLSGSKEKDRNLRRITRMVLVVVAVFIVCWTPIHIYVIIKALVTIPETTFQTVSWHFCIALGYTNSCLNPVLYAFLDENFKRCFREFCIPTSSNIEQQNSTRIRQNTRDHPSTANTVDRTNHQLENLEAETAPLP

[5] = target: κ-opioid receptor (hKOR-CHO) (Homo sapiens, UniProt P41145); experiment: biochemical; format: biochemical
Sequence of κ-opioid receptor (hKOR-CHO) (P41145 whole entry): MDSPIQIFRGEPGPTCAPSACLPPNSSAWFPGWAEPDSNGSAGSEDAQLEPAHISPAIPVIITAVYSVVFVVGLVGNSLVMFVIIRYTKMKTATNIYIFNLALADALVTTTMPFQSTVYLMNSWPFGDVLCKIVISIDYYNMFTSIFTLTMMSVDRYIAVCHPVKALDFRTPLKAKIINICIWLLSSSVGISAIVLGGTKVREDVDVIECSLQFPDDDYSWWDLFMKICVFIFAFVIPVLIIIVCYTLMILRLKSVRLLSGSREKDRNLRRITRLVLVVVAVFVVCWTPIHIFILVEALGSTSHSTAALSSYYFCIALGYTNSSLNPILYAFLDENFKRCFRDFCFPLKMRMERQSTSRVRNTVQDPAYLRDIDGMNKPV

Sequence of δ-opioid receptor (CHO hDOR) (P41143 whole entry): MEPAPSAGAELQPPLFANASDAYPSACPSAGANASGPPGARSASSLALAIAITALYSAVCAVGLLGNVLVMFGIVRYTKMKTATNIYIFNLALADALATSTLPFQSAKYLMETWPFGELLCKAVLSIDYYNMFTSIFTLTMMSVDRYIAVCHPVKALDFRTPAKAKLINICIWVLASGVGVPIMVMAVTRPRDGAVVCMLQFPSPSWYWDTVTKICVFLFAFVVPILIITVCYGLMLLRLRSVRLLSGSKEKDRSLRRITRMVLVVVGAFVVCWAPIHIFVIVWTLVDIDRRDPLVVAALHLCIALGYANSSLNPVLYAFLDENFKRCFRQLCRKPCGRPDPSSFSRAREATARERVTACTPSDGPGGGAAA
Sequence of κ-opioid receptor (CHO hKOR) (P41145 whole entry): as the sequence (P41145 whole entry) above
Sequence of μ-opioid receptor (CHO hMOR) (P35372 whole entry): as the sequence (P35372 whole entry) above

Oc1cccc2c1O[C@@H]1CN(CCc3ccccc3)[C@@H]3CCC[C@]21C3 (relative stereo) [Cmpd 12, (3R*,6aS*,11aS*)-2-Phenethyl-2,3,4,5,6,11a-hexahydro-1H -3,6a-methanobenzofuro[2,3-c]azocin-10-ol]
μ affinity relative to morphine [1]: two to three times the affinity of morphine
fold less affinity for δ-receptors than for the μ-receptor [2]: about 1200 fold
fold less affinity for κ-receptors than for the μ-receptor [3]: about 50 fold
Kb [4]: 0.71 ± 0.09 nM
potency as μ-opioid antagonist relative to naloxone [4]: more than three times as potent as naloxone
Kb [5]: 1.79 ± 0.51 nM
κ-opioid antagonist potency relative to norBNI [5]: one tenth the potency of norBNI
